From publication PMC10724569 (Heliyon, 2023)

Tested on: VRBMP-1 binding to ACE2 on NOK cells
Type: cell-based, human

## diminazene aceturate [DIZE]
  Binding of VRBMP-1 to NOK cells after DIZE treatment: significantly reduced binding of VRBMP-1 at all three concentrations in a dose-dependent manner
  Reduction of VRBMP-1 binding, decoy peptides and DIZE each alone: significantly reduced the binding of VRBMP-1 with nearly the same potency
